Each structure is given as a SMILES string.

In general, melting point refers to the temperature of the solid-liquid transition. With `CN1CCC(O)(Cc2ccccc2Cl)CC1`, the melting point is 73 to 75 °C.

As to `CNC(=O)c1cccnc1Cl`, the melting point is 106 to 108 °C.

For the compound `O=C(Nc1ccc(Cl)cn1)C1CCNCC1`, the melting point fell in the range of 137 to 139 °C.

The compound `Cn1ncc2ccc(C#N)cc21` had a melting point of 104 to 106 °C.

Turning to `CC(C)(C)c1noc(C(N2CCOCC2)N2CCOCC2)n1`, the melting point was in the range of 80 to 82 °C.

As to `Nc1ccc(OCc2ccccn2)c(F)c1`, the melting point is 67 to 69 °C.

The compound `Cc1ccc(C#N)c(N2CCCC2)c1` gave a melting point of 68 to 70 °C.

The compound `Cc1ccc(NC(=O)C=NO)cc1` returned a melting point of 145 to 147 °C.

The compound `O=C(O)c1ccc2c(c1)COCO2` gave a melting point of 189 to 191 °C.

In turn, `Nc1ccc(Cl)c(S(N)(=O)=O)c1` returned a melting point of 161 to 163 °C.

`COC(=O)c1ccc(C(=O)c2cc[nH]c2)cc1` displayed a melting point of 159 to 161 °C.

`O=S(=O)(Cl)c1ccc(F)c2ncccc12` came in with a melting point of 104 to 106 °C.

On to `Nc1cc(-c2cccs2)nn1-c1ccccc1`, for which the melting point lay in the range of 121 to 123 °C.

`CN(C)CCn1c(S)nc2ccsc2c1=O` displayed a melting point of 192 to 194 °C.

With `Cc1cccc2[nH]c(CCC(=O)O)nc12`, the melting point lay within 238 to 240 °C.

In turn, `O=C(O)c1cc(-c2ccc(Cl)c(Cl)c2)ns1` registered a melting point of 208 to 210 °C.

In turn, `C=CCOc1c(Br)cc(C=O)cc1OC` showed a melting point of 52 to 53 °C.

In turn, `CN(C)c1ncccc1O` yielded a melting point of 173 to 175 °C.

As to `CN1CCN(c2ccc(N)cn2)CC1`, the melting point was in the range of 109 to 111 °C.

As for `O=C1C=CC(=O)N1c1ccc(F)cc1`, the melting point fell in the range of 160 to 162 °C.

`CCCCNc1c(N)n(CCC)c(=O)[nH]c1=O`: the melting point was in the range of 201 to 203 °C.

As to `O=C(O)c1ccc(-c2cccs2)o1`, the melting point lay in the range of 169 to 171 °C.

In turn, `CC(N)c1ccc(-c2ccncc2)cc1` (stereo not drawn) came in with a melting point of 87 to 89 °C.

For `O=C(O)c1cc(-c2ccccc2)ns1`, the melting point is 183 to 185 °C.

In the case of `CC1(NC(=O)CCl)CCS(=O)(=O)C1` (stereo not drawn), the melting point was in the range of 96 to 98 °C.

`CC(C)(C)c1ccc(C2(CN)CCCC2)cc1` gave a melting point of 62 to 64 °C.

For the compound `Nc1ccccc1NC(=O)N1CCCC1`, the melting point lay within 127 to 129 °C.

In turn, `NCc1cccc(N)n1` gave a melting point of 93 to 95 °C.

`CSCCC(NC(=O)Cc1ccccc1)C(=O)O` (stereo not drawn) showed a melting point of 101 to 103 °C.

The compound `CCc1nn(C)c(CC)c1S(N)(=O)=O` yielded a melting point of 177 to 179 °C.

Turning to `CCOC(=O)c1cnc2ccc(C)cc2c1Cl`, the melting point lay in the range of 62 to 64 °C.

For the compound `O=C(CN1C(=O)CCC1=O)c1ccccc1F`, the melting point was 154 to 156 °C.

`CNCC1CCN(CC(O)c2ccccc2)CC1` (stereo not drawn): the melting point was in the range of 47 to 49 °C.

For `CCN1CCCC1CN=C=S` (stereo not drawn), the melting point is 43 to 45 °C.

In the case of `O=C(O)c1sc2cccc(F)c2c1COc1ccccc1`, the melting point is 206 to 208 °C.

For `Fc1ccc(-c2cc3ncnc(Cl)c3s2)cc1`, the melting point lay in the range of 202 to 206 °C.

`COc1cc(C(=O)O)cc2c1OCCO2` came in with a melting point of 203 to 205 °C.

Consider `CCCOc1ccc(CCC(=O)O)cc1`, for which the melting point is 90 to 92 °C.

With `O=C1CC2CCCN2c2ccccc2N1` (stereo not drawn), the melting point was in the range of 139 to 141 °C.

With `NC(=O)c1ccc(S(N)(=O)=O)s1`, the melting point is 214 to 216 °C.

`COc1ccc(-c2csc(CC#N)n2)cc1` registered a melting point of 70 to 72 °C.

As to `Cc1cn2c(n1)CNCC2`, the melting point lay within 100 to 102 °C.

Turning to `O=[N+]([O-])c1ccc(-c2nc(CCl)co2)cc1`, the melting point lay within 119 to 121 °C.

In turn, `O=C(Nc1ccn[nH]1)OCc1ccccc1` showed a melting point of 194 to 196 °C.

On to `COc1ccc(C(=O)C(Cl)c2ccc(OC)cc2)cc1` (stereo not drawn), for which the melting point was in the range of 69 to 71 °C.

In turn, `Cc1cccc2nc(C(F)(F)F)[nH]c(=O)c12` displayed a melting point of 118 to 120 °C.

In turn, `Cn1ncc2c(O)c(C(=O)O)cnc21` returned a melting point of 193 to 195 °C.

For `Nc1cccc(-c2ccc(Cl)c(Cl)c2)c1`, the melting point lay within 97 to 99 °C.

As to `Nc1nnc(CO)s1`, the melting point fell in the range of 169 to 171 °C.

For the compound `COc1cc(C=CC(=O)O)ccc1OCC#N`, the melting point was 164 to 166 °C.

`O=C(Nc1ccc(F)cc1F)OCC(F)(F)F` registered a melting point of 72 to 74 °C.

`CC(N)C(O)c1ccc(F)cc1` (stereo not drawn) returned a melting point of 87 to 89 °C.

As to `Clc1nc(-c2ccccn2)nc2c1CCC2`, the melting point fell in the range of 142 to 144 °C.

For the compound `Nc1cccc(N2CCCNC2=O)c1`, the melting point lay within 229 to 231 °C.

On to `COc1cc(OC)c2c(Cl)ccnc2c1`, for which the melting point is 92 to 94 °C.

`Cc1cc(Br)cc([N+](=O)[O-])c1O` returned a melting point of 89 to 91 °C.

For the compound `Cn1cnnc1-c1ccccc1N`, the melting point fell in the range of 133 to 135 °C.

Compound `Cc1cc(C)c(S(N)(=O)=O)cc1C(=O)O` gave a melting point of 252 to 254 °C.

The compound `Cc1nn(-c2ccc(Cl)cc2)c2sc(C(=O)O)cc12` yielded a melting point of 230 to 238 °C.

As to `BrCCCOc1ccc2ccccc2c1`, the melting point fell in the range of 56 to 58 °C.

Turning to `N#Cc1cccc(Cn2ccnc2)c1`, the melting point was 65 to 67 °C.

As to `CC(=O)N1Cc2ccccc2CC1C(=O)O` (stereo not drawn), the melting point fell in the range of 173 to 175 °C.

For `NCc1nc2ccccc2s1`, the melting point was 199 to 201 °C.

Turning to `Cc1cc(C(F)(F)F)c2c(C)c(C(=O)O)sc2n1`, the melting point fell in the range of 259 to 261 °C.

`CN(C)c1ncc(Br)cc1C(=O)O` came in with a melting point of 143 to 145 °C.

`Nc1nc(-c2ccc(OCc3ccccc3)cc2)cs1` came in with a melting point of 160 to 162 °C.

The compound `COc1cccc(-n2c(CC(=O)NN)csc2=NCc2ccco2)c1` gave a melting point of 151 to 153 °C.

`O=C1NC2(CCCCC2)C(=O)N1Cc1ccccc1` showed a melting point of 151 to 153 °C.

Take `Nc1cc(C(F)(F)F)ccc1-n1cccn1`: the melting point was in the range of 40 to 48 °C.

`O=C(O)c1cc(=O)c(OCc2ccccc2)co1` yielded a melting point of 179 to 181 °C.

On to `NC(=O)c1ccc(Cl)cc1N`, for which the melting point was 179 to 181 °C.

With `NC(=O)c1ccc(OCC(=O)O)cc1`, the melting point was 264 to 266 °C.

On to `CCNC(=O)N1CCc2ccc(N)cc21`, for which the melting point was 134 to 136 °C.

`CC(C)(C)OC(=O)N1CCN(CC(=O)O)C(=O)C1`: the melting point was 149 to 151 °C.

For `Cc1c[nH]c(=O)n1-c1ccc(Cl)cc1`, the melting point was 185 to 187 °C.

`O=C(O)c1ccc(Cl)c(S(=O)(=O)Cl)c1` showed a melting point of 142 to 145 °C.

In turn, `O=[N+]([O-])c1cnn(CC2CO2)c1` (stereo not drawn) returned a melting point of 68 to 70 °C.

In the case of `O=c1[nH]c(CN2CCOCC2)nc2sc3c(c12)CCCC3`, the melting point lay within 162 to 164 °C.

On to `O=S(=O)(Cl)c1ccc2c(c1)COC2`, for which the melting point was in the range of 98 to 100 °C.

`COc1ccc(-c2nn(-c3ccccc3)cc2C=CC(=O)O)cc1OC`: the melting point fell in the range of 162 to 164 °C.

Compound `O=C(O)c1cc2ccccc2nc1N1CCCC1` came in with a melting point of 169 to 171 °C.

With `O=C1CCc2c(F)cc(Br)cc21`, the melting point was 114 to 116 °C.

As for `CCc1cccc(CC)c1NC(=O)C(C)Cl` (stereo not drawn), the melting point fell in the range of 166 to 168 °C.

The compound `CCOC(C)C(N)=S` (stereo not drawn) showed a melting point of 54 to 56 °C.

In the case of `CC1(C(=O)O)CCCS1` (stereo not drawn), the melting point was in the range of 38 to 40 °C.

`O=C(O)CCOc1ccccc1F` showed a melting point of 112 to 114 °C.

In turn, `O=c1[nH]ccs1` gave a melting point of 55 to 57 °C.

Consider `NNC(=S)NC1CCCC1`, for which the melting point fell in the range of 76 to 78 °C.

On to `CCOC(=O)c1c(C)[nH]c(C=O)c1C`, for which the melting point lay in the range of 162 to 164 °C.

Take `Cc1nc(S(=O)(=O)N2CCC(C(=O)O)CC2)cn1C`: the melting point was 262 to 264 °C.

As to `C=CC(=O)ON=C(N)c1cccc(Cl)c1`, the melting point lay in the range of 114 to 116 °C.

The compound `Cc1ccc(-c2cc(C(=O)NN)c3ccccc3n2)cc1` displayed a melting point of 85 to 90 °C.

The compound `CCc1ccc(C(=O)O)cc1C#N` gave a melting point of 141 to 143 °C.

`COc1ccc2cc(C(C)C#N)ccc2c1` (stereo not drawn): the melting point is 70 to 72 °C.

`O=[N+]([O-])c1cccc2ncnc(O)c12` displayed a melting point of 239 to 241 °C.

As to `O=[N+]([O-])c1cc2c(cc1S(=O)(=O)Cl)OCCCO2`, the melting point fell in the range of 125 to 127 °C.

`CC(C)c1nc(Cl)nc(N(C)C)n1` displayed a melting point of 57 to 59 °C.

Regarding `Clc1ccc(Cn2cc(Br)cn2)cc1`, the melting point was 71 to 73 °C.

In the case of `CNC(=O)NC(=O)C(C)Cl` (stereo not drawn), the melting point lay within 118 to 120 °C.

Compound `Nc1ccc(Br)nc1Cl` yielded a melting point of 113 to 115 °C.

In the case of `O=C(O)c1cc(-c2ccc(OC(F)F)cc2)nc2ccccc12`, the melting point was 224 to 226 °C.

`NNC(=O)Nc1ccc(Cl)cc1Cl` displayed a melting point of 153 to 155 °C.

`Cn1cnnc1S(=O)(=O)O` gave a melting point of 170 to 172 °C.

Regarding `O=C(O)c1cc(Br)ncc1[N+](=O)[O-]`, the melting point was in the range of 169 to 171 °C.

As for `Cc1ccccc1SCC(=O)O`, the melting point lay in the range of 108 to 110 °C.

`CC(=O)c1cccc(OCc2cc(C(=O)O)no2)c1` gave a melting point of 169 to 171 °C.

For `Cc1cc(S(=O)(=O)Cl)cc(C(=O)O)c1Cl`, the melting point is 169 to 171 °C.

As to `NS(=O)(=O)N1CCCNCC1`, the melting point is 118 to 120 °C.

Regarding `CCOC(=O)C1=NN(c2ccc(Cl)cc2)C(=O)C1`, the melting point was in the range of 141 to 143 °C.

Compound `ON=Cc1nc2cc(Cl)ccc2o1` showed a melting point of 206 to 208 °C.

Consider `COC(C)(C(=O)O)c1ccccc1` (stereo not drawn), for which the melting point fell in the range of 44 to 46 °C.

`O=C(O)CS(=O)(=O)CCCc1ccccc1` had a melting point of 97 to 99 °C.

`O=C(O)CN1CCS(=O)(=O)CC1` returned a melting point of 179 to 181 °C.

For the compound `COc1cc(C=O)c([N+](=O)[O-])cc1OCC(F)F`, the melting point was 139 to 141 °C.

Turning to `O=C(O)c1cnc(Cc2ccc(F)cc2)s1`, the melting point fell in the range of 178 to 180 °C.

For the compound `CC1CC(C)(C)NC1=O` (stereo not drawn), the melting point fell in the range of 77 to 79 °C.

`Cn1cnc(-c2cccc(N)c2)n1` came in with a melting point of 184 to 186 °C.

The compound `CCOC(=O)c1c(C2CCCCC2)csc1N` showed a melting point of 109 to 111 °C.

On to `CC(C)Nc1cc(F)ccc1[N+](=O)[O-]`, for which the melting point is 68 to 70 °C.

For the compound `Cc1csc(NCCc2ccccc2)n1`, the melting point lay within 80 to 82 °C.

In turn, `O=C(O)CSc1ncn[nH]1` displayed a melting point of 154 to 156 °C.

For the compound `CN(C)CCCNC(=O)c1cccnc1Cl`, the melting point was in the range of 97 to 101 °C.

The compound `CN1CCN(c2ccc(N)c(C(F)(F)F)c2)CC1` showed a melting point of 87 to 89 °C.

The record behind these values is a melting point compilation (Tetko et al.).
